The target in this assay is T1, ANT-(4′) (Staphylococcus aureus, UniProt P05057).
T1 construct: gene knt; pET plasmid pET-ANT-(4′) in E. coli BL21 (printed for MIC strains)
The assay is described as follows: thermal shift, SYPRO Orange. In kind it is binding. To be noted: Tris 10 mM pH 8.0, 0.2 mM NaCl; protein 4.4 µM and ligand 10 µM solutions mixed; blank Tm 58 ± 0.1. The text has this: thermal shift, SYPRO Orange on ANT-(4′)

T1 sequence (P05057 whole entry): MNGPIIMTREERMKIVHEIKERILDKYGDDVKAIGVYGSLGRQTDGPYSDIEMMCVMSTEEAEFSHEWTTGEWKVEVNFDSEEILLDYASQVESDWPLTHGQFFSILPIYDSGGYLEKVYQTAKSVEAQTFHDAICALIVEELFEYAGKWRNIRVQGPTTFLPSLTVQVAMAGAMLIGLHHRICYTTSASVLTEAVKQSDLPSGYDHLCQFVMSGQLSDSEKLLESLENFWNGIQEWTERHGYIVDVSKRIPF

Consider `NC[C@H]1O[C@H](O[C@H]2[C@H](O)[C@@H](O[C@H]3O[C@H](CO)[C@@H](O)[C@H](N)[C@H]3O)[C@H](N)C[C@@H]2N)[C@H](O)[C@@H](O)[C@@H]1O` [compound 1, Kanamycin A], for which the 1 turned out to be 61.5 ± 0.1 °C.
For `NC[C@H]1O[C@H](O[C@H]2[C@H](O)[C@@H](O)[C@H](N)C[C@@H]2N)[C@H](N)[C@@H](O)[C@@H]1O` [compound 4, 4-O-(2,6-di-Deoxy-α-D-2,6-di-amine-glucopyranosyl)-2-deoxy-streptamine], the 4 was 61 ± 0.1 °C.

The values are drawn from PMC6783941, “Synthesis of Ring II/III Fragment of Kanamycin: A New Minimum Structural Motif for Aminoglycoside Recognition” (Antibiotics, 2019).
